Measurements reported in patent US20160045625A1, “[11C] AND [18F] LABELED 1,3-DIPHENYL-5-(PYRIMIDIN-2-YL)-PYRIDIN-2(1H)-ONE DERIVATIVES AND THEIR USE FOR PET IMAGING OF THE AMPA RECEPTOR” (EISAI R&D MANAGEMENT CO., LTD., priority 2013, published 2016).

Tests used:
AMPA receptor [1] = details: in vivo PET, rat; cited from earlier work
AMPA receptor [2] = assay: In vitro receptor binding assay ([^3H]perampanel, Ki value measurement); parameters: species or system rat (Sprague-Dawley); details: rat forebrain membranes, 90 min at 4° C., Scatchard analysis
Method: Homogenate of forebrains of rats (Sprague-Dawley) was prepared in ice-cold solution containing 0.32 M sucrose and 0.1 mM EGTA (pH 7.4). Homogenate was centrifuged in 1000 g for 10 min and supernatant was collected. This supernatant was centrifuged in 30000 g for 20 min. Precipitate was suspended in 1 mM EGTA/Tris buffer (pH 8.0) by sonication, subjected osmotic lysis on ice for 10 min and centrifuged in 30000 g for 20 min. This procedure was conducted twice. Precipitate was suspended in 50 mM Tris HCl buffer (pH 7.4) by sonication and centrifuged in 30000 g for 20 min. This procedure was conducted three times. Precipitate was suspended in 50 mM Tris HCl buffer (pH 7.4) by sonication and stocked at −80° C. On the day of binding assay, stocked solution was suspended in 50 mM Tris HCl buffer (pH 7.4) by sonication and centrifuged in 30000 g for 20 min. This procedure was conducted three times. Precipitate was suspended in 50 mM Tris-HCl buffer (pH 7.4) by sonication and used for binding assay.
Receptor solution was re-suspended in binding buffer (50 mM Tris-HCl, pH 7.4) to a final concentration of 0.24 mg tissue eq./assay. The incubation time for [^3H]perampanel on AMPA receptor was 90 min at 4° C. After incubation, membranes were filtered onto GF/B filter presoaked with 0.3% PEI and washed three times with ice-cold wash buffer (same as binding buffer). Each filter was placed in a vial and 6 mL of liquid scintillator reagent (Hionic-Fluor; PerkinElmer Life & Analytical Sciences) were added. Radioactivity was counted (1 min) in a liquid scintillation counter (LSC-6100, Hitachi Aloka Medical, Ltd.).
Saturation isotherms were determined by addition of various concentrations of [^3H]perampanel (1-2000 nM). Nonspecific bindings for [^3H]perampanel was measured in the presence of 15 μM unlabeled compounds. Ki value was calculated by Scatchard analysis of saturation isotherm experiment.

AMPA receptor [3] = assay: In vivo PET blocking study in monkey; parameters: species or system Rhesus monkey; details: i.v. pretreatment 0.02 to 0.1 mg/kg, 15 min prior to radioligand (Example 4); CTX, HIP, CER, THA, STR
Method: FIG. 4. Rhesus monkey PET blocking study of the compound of Example 4. In vivo area under time-radioactivity curves of to the region of interests (CTX, HIP, cerebellum (CER), thalamus (THA), striatum (STR)) in the absence (control) and blockade by pretreatment with the unlabeled compound. Radioactivity is expressed as percentage of standardized uptake value (% SUV) and integrated radioactivity of the specific binding versus reference region (brain stem; BS) from 0 to 40 min during the PET scan.
For the PET blocking study, unlabeled compound (Reference Example 9, 0.1 mg/kg/5 mL to 0.02 mg/kg/5 mL of saline with 10% DMSO, 3 doses) was intravenously administrated via the crural vein as a single slow bolus over 10 min, 15 min prior to radioligand administration. All PET scans were acquired from the same two monkeys (n=2).
Area under time-radioactivity curves of to the region of interests (CTX, HIP, cerebellum (CER), thalamus (THA), STR) in the absence (control) and blockade by pretreatment with Reference Example 9. Radioactivity is expressed as percentage of standardized uptake value (% SUV) and integrated radioactivity from 0 to 40 min during the PET scan.

| Compound | clearance from the CNS (AMPA receptor [1]) | specific binding (AMPA receptor [1]) | Ki (AMPA receptor [2]) [nM] | radioactivity (area under time-radioactivity curves, % SUV, 0 to 40 min) compared to control (AMPA receptor [3]) |
| --- | --- | --- | --- | --- |
| COc1cc2c(cc1O[11CH3])C(c1ccc(Cl)cc1)N(C(C)=O)CC2 (stereo not shown) [N-acetyl-1-(4-chlorophenyl)-6-methoxy-7-[^11C]methoxy-1,2,3,4-tetrahydroisoquinoline] | rapid clearance from the CNS | low specific binding |  |  |
| CNc1cccc(-n2cc(-c3ncccn3)cc(-c3ccccc3C#N)c2=O)c1 [Reference Example 9, 2-(1-(3-(methylamino)phenyl)-2-oxo-5-(pyrimidin-2-yl)-1,2-dihydropyridin-3-yl)benzonitrile] |  |  | 10 | markedly reduced the radioactivity in dose dependent manner |
| N#Cc1ccccc1-c1cc(-c2ncccn2)cn(-c2cccc(F)c2)c1=O [Reference Example 15, 2-(1-(3-fluorophenyl)-2-oxo-5-(pyrimidin-2-yl)-1,2-dihydropyridin-3-yl)benzonitrile] |  |  | 20 |  |
| N#Cc1ccccc1-c1cc(-c2ncccn2)cn(-c2ccc(F)c(N)c2)c1=O [Reference Example 19, 2-(1-(3-amino-4-fluorophenyl)-2-oxo-5-(pyrimidin-2-yl)-1,2-dihydropyridin-3-yl)benzonitrile] |  |  | 5 |  |
| O=c1c(-c2ccccc2F)cc(-c2ncccn2)cn1-c1cccc(CF)c1 [Reference Example 22, 3-(2-fluorophenyl)-1-(3-(fluoromethyl)phenyl)-5-(pyrimidin-2-yl)pyridin-2(1H)-one] |  |  | 22 |  |
